Laboratory results reported in patent US7166612B2, “Methods for reducing platelet activation platelet aggregaton or thrombosis” (Beth Israel Deaconess Medical Center, priority 2001, dated 2007).

System: thromboemboli from laser-induced thrombi
Test: thromboembolization from laser-induced thrombi (intravital videomicroscopy)
Type: in vivo, mouse
Experimental: (A) Thromboembolic events distal from the thrombus were captured using quantitative intravital fluorescence videomicroscopy with high temporal resolution( (111 frames/second) and the total amount of thromboembolization was calculated by determining the total fluorescence intensity of the fluorescently labeled platelets in thromboemboli. (B) Thromboembolization was recorded before infusion of pyridazinone compound. Platelet accumulation into thrombus is indicated by the gray line. Thromboembolism from the same thrombus is measured over time and is indicated by black bars. Each black bar represents a single thromboembolic event of the indicated fluorescent intensity.
Under these conditions, a dynamic thrombus that undergoes continuous cyclic embolization and re-accumulation is observed. The degree of embolization in an untreated mouse can be quantified using software for image analysis, e.g., BioQuant True Color Windows (Biometrics, Nashville, Tenn.), as described in Rosen et al., 2001, supra. […]
Using quantitative intravital fluorescence videomicroscopy with high temporal resolution, thromboemboli were detected and the total amount of fluorescence of the thromboemboli was measured (FIG. 11A). For this analysis, thromboembolus was defined as a platelet aggregate with a fluorescent intensity two standard deviations above the maximum background fluorescence of the arteriole before injury. […]

CC1CC(=O)NN=C1c1ccc(N)c([N+](=O)[O-])c1 (centres unmarked) [6-(4-Amino-3-nitro-phenyl)-5-methyl-4,5-dihydro-2H-pyridazin-3-one]
thromboembolization after infusion (1.2 mg/kg, in words): significantly reduced | reduction of embolization (after injection of compound): greater than 80%
